Source: patent US20090155228A1, “COMPOUNDS, KITS AND METHODS FOR CONFERRING CYTOPROTECTION” (priority 2006, published 2009)
Values joined by “and” are separate entries in the source; they are usually repeats but may differ in a detail not shown here. Identical values can stand only once.

Tests used:
ABCG2 [1] = assay: RT-Q-PCR ABCG2 transcript level in monocyte-derived DCs; type: cell-based, human
Method: (§1) Cell culture and ligand treatment—Monocytes (98% CD14+) were obtained from buffy coats by Ficoll gradient centrifugation and immunomagnetic cell separation using anti-CD14-conjugated microbeads (VarioMACS; Miltenyi Biotec). […] Cells were cultured for 5 or 6 days (unless otherwise indicated) and the IL-4 and GM-CSF addition was repeated at day 3. Ligands or vehicle control (50% DMSO/ethanol) were added to the cell culture from the first day on. MonoMac-6 (MM6) cells were a kind gift of E. Duda (Biological Research Center, Szeged, Hungary).

ABCG2 [2] = assay: Flow cytometry of ABCG2 cell surface expression in DCs (5D3 antibody); type: cell-based, human; details: DCs treated with RSG plus GW9662
Method: (§2) FACS analysis—Cell staining was performed using FITC- or PE-conjugated monoclonal antibodies: Labeled antibodies for flow cytometry included anti-CD1a-PE, CD1d-PE, CD80-PE, CD86-PE and isotype-matched controls (BD PharMingen). For the ABCG2 detection cells were fixed with 1% paraformaldehyde for 5 min, then incubated with unlabeled anti-ABCG2 (5D3) or isotype-matched control (R and D system) antibody for 30 min at 37° C., followed by staining with FITC-labeled anti-mouse antibody (BD PharMingen). The fluorescence of labeled cells was measured by using a FACSCalibur flow cytometer (Beckton Dickinson).

FABP4 [3] = assay: RT-Q-PCR FABP4 transcript level in monocyte-derived DCs; type: cell-based, human
Method: (§3) Cell culture and ligand treatment—Monocytes (98% CD14+) were obtained from buffy coats by Ficoll gradient centrifugation and immunomagnetic cell separation using anti-CD14-conjugated microbeads (VarioMACS; Miltenyi Biotec). DCs were prepared as described previously (Szatmari, I. et al. (2004) Immunity 21, 95-106). In brief, monocytes were resuspended into six-well culture dishes at a density of 1.5×10^6 cells/ml and cultured in RPMI 1640 supplemented with 10% FBS (Invitrogen), containing 800 U/ml GM-CSF (Leucomax) and 500 U/ml IL-4 (Peprotech). Cells were cultured for 5 or 6 days (unless otherwise indicated) and the IL-4 and GM-CSF addition was repeated at day 3. Ligands or vehicle control (50% DMSO/ethanol) were added to the cell culture from the first day on. MonoMac-6 (MM6) cells were a kind gift of E. Duda (Biological Research Center, Szeged, Hungary). These cells were cultured in RPMI 1640 supplemented with 10% FBS.

CD1a [4] = assay: FACS cell surface expression of CD1a on DCs; type: cell-based, human; details: PPARg activated DCs (2.5 μM RSG) with 1 μM KO143
Method: as §2

CD1d = assay: FACS cell surface expression of CD1d on DCs; type: cell-based, human; details: PPARg activated DCs (2.5 μM RSG) with 1 μM KO143
Method: as §2

ABCG2 [5] = assay: Hoechst 33342 retention in DCs by CLSM and FACS; type: cell-based, human; details: stimulated DCs, 1 μM KO143
Method: Measurement of Hoechst retention by CLSM and FACS—DCs were plated on Lab-Tek coverslip chambers. Cells were incubated with 0.5 μg/ml Hoechst 33342 for 1 h at 37° C. with or without KO143 (1 μM), then subjected to microscopic analysis. Hoechst fluorescence was measured on a Zeiss LSM 510 confocal microscope with a Plan-Apochromat 60× (NA 1.4) oil immersion objective using maximal detection pinhole diameter (1 mm) to get signal from the whole depth of the nucleus. Hoechst was excited by the 351 and 364 nm lines of an Ar ion laser, emission was measured through a 385-to-470 nm bandpass filter.
Hoechst content was also measured on a Becton Dickinson FACSVantage flow cytometer. Hoechst fluorescence was excited by the 351 and 364 nm lines and the blue and red Hoechst signals were detected through 402-to-446 nm and >650 nm filters, respectively.

CD1a [6] = assay: RT-Q-PCR CD1a transcript level in DCs; type: cell-based, human; details: PPARg activated DCs with 1 μM KO143; relative to cyclophilin A
Method: as §3

CD80 = assay: FACS cell surface expression of CD80 on DCs; type: cell-based, human; details: PPARg activated DCs (2.5 μM RSG) with 1 μM KO143
Method: as §2

ABCG2 [7] = assay: Mitoxantrone uptake in DCs by FACS; type: cell-based, human; details: 30 min
Method: Measurement of mitoxantrone uptake by FACS analyses—Cells were resuspended in phenol red free HPMI medium containing the desired fluorescent compound (20 μM mitoxantrone) with or without KO143 (1 μM) and incubated at 37° C. for 30 min, Thereafter the cells were washed with cold HPMI and subjected to flow cytometric analyses. The cells were assessed for fluorescence intensity with a FACSCalibur cytometer (Beckton Dickinson).

DCs = details: MTT
Method: Cytotoxicity assay—Cytotoxicity assays were carried out using the MTT assay. Briefly, cells were plated in 96-well plates at a density of 10^5 cells per well. Mitoxantrone at various concentrations with or without KO143 was added to DCs and cells were incubated at 37° C. for 48 h. After incubation, cytotoxicity was assessed by using the MTT assay.

CD86 = assay: FACS cell surface expression of CD86 on DCs; type: cell-based, human; details: PPARg activated DCs (2.5 μM RSG) with 1 μM KO143
Method: as §2

ABCA1 = assay: RT-Q-PCR ABCA1 mRNA level in DCs; type: cell-based, human; details: DCs cultured 24 h, 1 μM RSG or 1 μM T0901317
Method: as §1

ABCG1 = assay: RT-Q-PCR ABCG1 mRNA level in DCs; type: cell-based, human; details: DCs cultured 24 h, 1 μM RSG or 1 μM T0901317
Method: as §1

[8] = patients treated with 4 mg RSG; cited from earlier work
PPARd = assay: RT-Q-PCR PPARd transcript in MM6 cells after RNA interference; type: cell-based; details: MM6 cells electroporated with 1.5 μg siRNA
Method: (§4) RNA interference—For siRNA delivery the AMAXA's Nucleofection technology (AMAXA) was applied. MM6 cells (1×10^6) were harvested and electroporated with 1.5 μg siRNA using the Cell line nucleofector kit V (AMAXA), program v-001. Applicants used a previously described PPARg specific siRNA sequence (Kelly, D. et al. (2004) Nat Immunol 5, 104-112): […]-d(TT) (SEQ ID NO. 10). As a negative control, Silencer Negative Control 1 siRNA (Ambion) was used.
as §3

PPARg = assay: RT-Q-PCR PPARg transcript in MM6 cells after RNA interference; type: cell-based; details: MM6 cells electroporated with 1.5 μg siRNA
Method: as §4, §3

FABP4 [9] = assay: RT-Q-PCR FABP4 transcript in MM6 cells; type: cell-based; details: after RSG alone or with LG268, 24 h
Method: as §4, §3

ABCG2 [10] = assay: RT-Q-PCR ABCG2 transcript in MM6 cells; type: cell-based; details: after RSG alone or with LG268, 24 h
Method: as §4, §3

[11] = target: T1, PPARgamma:RXRalpha heterodimer (Mus musculus (PPARg); Homo sapiens …, UniProt P37238;P19793 P37238:1-505,P19793:1-462); assay: EMSA; supershift with anti-RXRa and anti-PPARg; competed by cold WT; details: tags: T7 Quick TNT, full-length; label: 32P
[12] = target: T1, PPARgamma:RXRalpha heterodimer; assay: EMSA; supershift with both antibodies; some aspecific binding also in blank; details: tags: T7 Quick TNT, full-length; label: 32P
[13] = target: T1, PPARgamma:RXRalpha heterodimer; assay: competition; cold mutant at x10 and x20 does not compete; details: tags: T7 Quick TNT, full-length
[14] = ligand treated monocyte-derived DCs: 2.5 μM RSG, 100 nM GW347845X, 1 μM troglitazone, relative to 36B4

O=C(Nc1ccccc1)c1cc([N+](=O)[O-])ccc1Cl [GW9662]
Effect of PPARg antagonist on RSG induction of ABCG2 mRNA (ABCG2 [1]; DCs, 2.5 μM RSG with 5 μM GW9662): abolished the induction of ABCG2
Cell surface expression of ABCG2 protein with PPARg antagonist (ABCG2 [2]): reduced

COC(=O)c1ccccc1N[C@@H](Cc1ccc(OCCc2nc(-c3ccccc3)oc2C)cc1)C(=O)O [GW347845X]
ABCG2 mRNA expression (ABCG2 [1]; [14]): induced
FABP4 mRNA expression (FABP4 [3]; [14]): induced

COc1ccc2c3c([nH]c2c1)[C@H](CC(C)C)N1C(=O)[C@H](CCC(=O)OC(C)(C)C)NC(=O)[C@@H]1C3 [KO143]
Cell surface expression of CD1a with ABCG2 inhibitor (CD1a [4]): slightly decreased
Cell surface expression of CD1d with ABCG2 inhibitor (CD1d): did not change
Effect of ABCG2 inhibitor on reduced Hoechst dye accumulation (ABCG2 [5]): abolished the effect of the PPARg ligand treatment
CD1a mRNA expression with ABCG2 inhibitor (CD1a [6]): reduced
Cell surface expression of CD80 with ABCG2 inhibitor (CD80): did not change
Mitoxantrone extrusion by ABCG2 in activated cells (ABCG2 [7]; 1 μM KO143, 20 μM mitoxantrone): fully inhibited
Transcript level of FABP4 with ABCG2 inhibitor (FABP4 [3]; PPARg activated DCs with 1 μM KO143, relative to cyclophilin A): did not change
Effect of ABCG2 inhibitor on protection against mitoxantrone (DCs; RSG treated DCs with KO143, 48 h): removed this protective effect
Cell surface expression of CD86 with ABCG2 inhibitor (CD86): did not change

O=S(=O)(c1ccccc1)N(CC(F)(F)F)c1ccc(C(O)(C(F)(F)F)C(F)(F)F)cc1 [T0901317]
ABCG2 mRNA expression with LXR specific agonist (ABCG2 [1]; DCs cultured 24 h, 1 μM T0901317): did not affect
ABCA1 mRNA expression (ABCA1): profound upregulation
ABCG1 mRNA expression (ABCG1): profound upregulation

O=C1c2c(O)ccc(O)c2C(=O)c2c(NCCNCCO)ccc(NCCNCCO)c21 [mitoxantrone]
Mitoxantrone accumulation in control DCs (ABCG2 [7]; 20 μM mitoxantrone): rapid
Cell viability of control DCs (DCs; mitoxantrone 1.25 or 2.5 μg/ml, 48 h): induced cell death

CN(CCOc1ccc(CC2SC(=O)NC2=O)cc1)c1ccccn1 (centres unmarked) [rosiglitazone]
Plasma concentration [8]: 50-350 ng/ml and 100-1000 nM

GCCCTTCACTACTGTTGAC-d(TT) (sense GCCCTTCACTACTGTTGACTT; 3' dTdT overhang, further chemistry not given here) [PPARg-specific siRNA]
Expression of PPARd (PPARd): did not interfere
Expression of endogenous PPARg (PPARg): effectively inhibited
Induction of FABP4 in siRNA treated MM6 cells (FABP4 [9]): impaired induction
Induction of ABCG2 in siRNA treated MM6 cells (ABCG2 [10]): impaired induction

B1: ABCG2 element A WT (dsDNA)
DNA 1: GGGGTGGAGGGCAGAGGGCAATGGC
DNA 2: GCCATTGCCCTCTGCCCTCCACCCC
binding result [11]: binds

B2: ABCG2 element B WT (dsDNA)
DNA 1: GGGCACAAGGTTAAAGGTTAAGTGA
DNA 2: TCACTTAACCTTTAACCTTGTGCCC
binding result [12]: binds

B3: ABCG2 element C WT (dsDNA)
DNA 1: GGTCATTAGGTCAGATGTTAGATGA
DNA 2: TCATCTAACATCTGACCTAATGACC
binding result [12]: binds

B4: ABCG2 element A mut (dsDNA)
DNA 1: GGGGTGGGCGAGAGAGGGCAATGGC
DNA 2: GCCATTGCCCTCTCTCGCCCACCCC
binding result [13]: no binding

B5: ABCG2 element B mut (dsDNA)
DNA 1: GGGCACATTGAGAAAGGTTAAGTGA
DNA 2: TCACTTAACCTTTCTCAATGTGCCC
binding result [13]: no binding

B6: ABCG2 element C mut (dsDNA)
DNA 1: GGTCATTTCGAGAGATGTTAGATGA
DNA 2: TCATCTAACATCTCTCGAAATGACC
binding result [13]: no binding
